The record followed here is patent publication US4260603A, “Sterol glycoside with activity as prostaglandin synthetase inhibitor” (priority 1979, dated 1981).

One may read the solubility as the dissolved amount per volume that the medium holds. Low readings indicate a poorly soluble substance, high ones a readily soluble substance.

The test system of series [1] is arthritis of rats caused by erysipeloid (strain T 28). In words: Erysipeloid arthritis of rats, evaluation of aorta thrombes. The following applies: 5 mg/kg i.p., 5 times per week from infection day; comparison group 2.80. It counts as in vivo, Male wistar rats. The source says:
When comparing arthritis based on experimental erysipeloid of for example rats with human rheumatic arthritis an extensive correspondence of the morphological changes can be observed. The tests had been made according to the publication of Schulz et al. Beitr. Path. 154, 1-26, 27-51 (1975). The arthritis of rats caused by erysipeloid can be reproduced with nearly 100 percent effectiveness with a single injection. In case of arthritis caused by erysipeloid always more than 6 joints of the limbs are transformed, namely big and small joints of the limbs in the same manner.
In the test of the compounds the following parameters of the manifestation phase had been used for estimating the activity of the compound.
With rats fibrine-rich thrombes occur about 6th to 11th day of the intima of the aorta. The largest space covered is about 8th day.
Male wistar rats with a body weight of 150 to 180 g were used for the tests. The animals had been kept in single cages and got a rat standard diet (Ssniff R) and water ad libitum.
The infection was carried out with the erysipeloid strain T 28. The dosage was 2 ml s.c. (about 100-200 millions germs). The compounds to be tested had been suspended in sterile saline solution and had been injected i.p. in a dosage of 5 mg/kg body weight. The treatment was 5 times per week from infection day to end of test or death of animal.

Series [2] in a line: Acute toxicity by oral administration. It counts as in vivo, rate, mice rabbits, dogs and primates. The following applies: doses of 1 to 2 grams/kg of body weight.
Series [3] can be described thus: Toxicity on administration over a long period of time. It counts as in vivo, rate, mice rabbits, dogs and primates. Particulars: daily doses of 100 to 200 mg/kg of body weight over a long period of time.
A short description of series [4]: physchem. It counts as physicochemical. The following applies: water. The source says: According to the described process there can also be produced solutions of other sterol disaccharides. […] This solubility is above the preferred individual doses employed of the compounds.

Structures are written as SMILES. Converted amounts (≈) assume the structure as drawn.

Regarding `C[C@@H]1CC[C@@]2(OC1)O[C@H]1C[C@H]3[C@@H]4CC=C5C[C@@H](O[C@@H]6O[C@H](CO)[C@@H](O)[C@H](O)[C@H]6O)CC[C@]5(C)[C@H]4CC[C@]3(C)[C@H]1[C@@H]2C` [diosgeninglucoside, diosgenin-3-β-D-Glucoside], the “evaluation of aorta thrombes (value)” value in series [1] came to 1.33.

As for `C[C@@H]1CC[C@@]2(OC1)O[C@H]1C[C@H]3[C@@H]4CC[C@H]5C[C@@H](O[C@@H]6O[C@H](CO)[C@@H](O)[C@H](O)[C@H]6O)CC[C@]5(C)[C@H]4CC(=O)[C@]3(C)[C@H]1[C@@H]2C` [hecogeninglucoside, hecogenin β-D-glucoside], in series [1], the “evaluation of aorta thrombes (value)” value is on record as 1.38.

Consider `CC[C@H](CC[C@@H](C)[C@H]1CC[C@H]2[C@@H]3CC=C4C[C@@H](O[C@@H]5O[C@H](CO)[C@@H](O)[C@H](O)[C@H]5O)CC[C@]4(C)[C@H]3CC[C@]12C)C(C)C` [sitosterol-β-D-glucoside, Sitosterol-β-D-Glucoside], for which the acute toxicity result in series [2] was “no toxic effects”. In addition, the tolerance entry in series [3] is “good”. Also, in series [1], the “evaluation of aorta thrombes (value)” value amounted to 2.00.

For `CC[C@H](CC[C@@H](C)[C@H]1CC[C@H]2[C@@H]3CC=C4C[C@@H](O[C@@H]5O[C@H](CO)[C@@H](O[C@@H]6O[C@H](CO)[C@@H](O)[C@H](O)[C@H]6O)[C@H](O)[C@H]5O)CC[C@]4(C)[C@H]3CC[C@]12C)C(C)C` [β-D-cellobioside of sitosterol], the solubility in series [4] worked out at 750 µg/mL (≈ 1010 µM).

For `CC[C@H](CC[C@@H](C)[C@H]1CC[C@H]2[C@@H]3CC=C4C[C@@H](O[C@@H]5O[C@H](CO)[C@@H](O[C@@H]6O[C@H](CO)[C@H](O)[C@H](O)[C@H]6O)[C@H](O)[C@H]5O)CC[C@]4(C)[C@H]3CC[C@]12C)C(C)C` [β-D-lactoside of sitosterol], the concentration in solution in series [4] (solubility) came to 210 µg/mL (≈ 284 µM).
